Test results as given in ChEMBL document CHEMBL1142222, “A-803467, a potent and selective Nav1.8 sodium channel blocker, attenuates neuropathic and inflammatory pain in the rat” (Proc Natl Acad Sci U S A, 2007).
Active and inactive are the calls of the source. The calls are words filed in the database; no cut-off is given here.

Key:
[1] = test system: Rattus norvegicus; test: Analgesic activity in ip dosed rat chronic constriction injury model of mechanical allodynia; format: functional
[2] = test system: Rattus norvegicus; test: Analgesic activity in rat chronic constriction injury model of cold allodynic neuropathic pain at 100 mg/kg, ip; format: functional; details: route intraperitoneal
[3] = test system: Rattus norvegicus; test: Analgesic activity in rat skin incision model of post-operative pain at 100 mg/kg, ip after 2 hrs; format: functional; details: route intraperitoneal
[4] = test system: Rattus norvegicus; test: Analgesic activity in ip dosed rat skin incision model of post-operative pain after 24 hrs; format: functional
[5] = test system: Rattus norvegicus; test: Analgesic activity in ip dosed rat cyclophosphamide induced cyctitis model; format: functional
[6] = test system: Rattus norvegicus; test: Analgesic activity in ip dosed rat cyclophosphamide induced cyctitis model at 100 mg/kg, ip; format: functional; details: route intraperitoneal
[7] = test system: Rattus norvegicus; test: Analgesic activity in rat colonic distension model at 100 mg/kg, ip; format: functional; details: route intraperitoneal
[8] = test system: Rattus norvegicus; test: Motor effect in rat assessed as locomotory activity at 300 mg/kg, ip; format: functional; details: route intraperitoneal
[9] = molecular target: 5-hydroxytryptamine receptor 5A (Homo sapiens, UniProt P47898); test: Displacement of [3H]LSD from 5HT5A receptor
[10] = molecular target: 5-hydroxytryptamine receptor 6 (Homo sapiens, UniProt P50406); test: Displacement of [3H]LSD from 5HT6 receptor
[11] = molecular target: 5-hydroxytryptamine receptor 7 (Homo sapiens, UniProt P34969); test: Displacement of [3H]LSD from 5HT7 receptor
[12] = molecular target: Sigma non-opioid intracellular receptor 1 (Homo sapiens, UniProt Q99720); test: Displacement of [3H]pentazocine from sigma1 receptor
[13] = Oral bioavailability in rat; format: ADME, organism-based; details: in vivo
[14] = molecular target: Voltage-dependent N-type calcium channel subunit alpha-1B (Homo sapiens, UniProt Q00975); test: Inhibition of Cav2.2 channel
[15] = molecular target: Potassium voltage-gated channel subfamily KQT member 3 (Homo sapiens, UniProt O43525); test: Inhibition of KCNQ3 channel
[16] = test system: DRG neuron; test: Suppression of evoked action potential firing in rat DRG neurons at 0.3 uM; format: functional, cell-based
[17] = Cmax in rat at 10 mg/kg, ip; format: ADME, organism-based; parameters: dose 10 mg/kg, route intraperitoneal; details: in vivo
[18] = Tmax in rat at 10 mg/kg, ip; format: ADME, organism-based; parameters: dose 10 mg/kg, route intraperitoneal; details: in vivo
[19] = Protein binding in rat plasma; format: ADME, cell-free; details: read-out: PPB (converted)
[20] = species: Rattus norvegicus; test: Analgesic activity in rat spinal nerve ligation model at 200 to 300 nM; format: functional
[21] = test system: Rattus norvegicus; test: Antinociceptive activity in rat assessed as reduction of von Frey evoked firing of spinal dorsal horn wide dynamic range neurons at 20 mg/kg, iv; format: functional, Dorsal horn of spinal cord; parameters: scale not given: the % may be the effect or the level left
[22] = test system: Rattus norvegicus; test: Analgesic activity in ip dosed rat acute thermal stimulation nociception model assessed as paw withdrawal latency; format: functional
[23] = test system: Rattus norvegicus; test: Analgesic activity in ip dosed rat acute mechanical stimulation nociception model assessed as paw withdrawal latency; format: functional
[24] = test system: Rattus norvegicus; test: Analgesic activity in rat formalin flinching inflammatory pain model at 300 mg/kg, ip; format: functional; details: route intraperitoneal
[25] = test system: Rattus norvegicus; test: Analgesic activity in ip dosed rat capsaicn induced mechanical allodynia model; format: functional
[26] = test system: Rattus norvegicus; test: Analgesic activity in ip dosed rat carrageenan-induced […] pain model; format: functional
[27] = test system: Rattus norvegicus; test: Analgesic activity in ip dosed rat complete Freund's adjuvant-induced thermal hyperalgesia model assessed as paw withdrawal latency after 2 days; format: functional; details: 48 h
[28] = test system: Rattus norvegicus; test: Analgesic activity in rat complete Freund's adjuvant-induced thermal hyperalgesia model assessed as paw withdrawal latency at 100 mg/kg, ip after 2 days; format: functional; details: route intraperitoneal
[29] = test system: Rattus norvegicus; test: Analgesic activity in rat complete Freund's adjuvant-induced thermal hyperalgesia model assessed as paw withdrawal latency at 100 mg/kg, ip after 4 days; format: functional; details: route intraperitoneal
[30] = molecular target: Adenosine receptor A1 (Homo sapiens, UniProt P30542); test: Displacement of [3H]DPCPX from adenosine A1 receptor
[31] = molecular target: Adenosine receptor A3 (Homo sapiens, UniProt P0DMS8); test: Displacement of [125I]AB-MECA from adenosine A3 receptor
[32] = molecular target: Alpha-2A adrenergic receptor (Homo sapiens, UniProt P08913); test: Displacement of [3H]RX821002 from adrenergic alpha-2 receptor
[33] = molecular target: Beta-2 adrenergic receptor (Homo sapiens, UniProt P07550); test: Displacement of [3H](-)CGP-12177 from adrenergic beta2 receptor
[34] = molecular target: Endothelin-1 receptor (Homo sapiens, UniProt P25101); test: Displacement of [125I]endothelin-1 from endothelin ETA receptor
[35] = molecular target: D(1A) dopamine receptor (Homo sapiens, UniProt P21728); test: Displacement of [3H]SCH-23390 from dopamine D1 receptor
[36] = molecular target: Cannabinoid receptor 2 (Homo sapiens, UniProt P34972); test: Displacement of [3H]Win 55212-2 from cannabinoid CB2 receptor
[37] = molecular target: T1, P2X purinoceptor 2 (Homo sapiens, UniProt Q9UBL9); test: Inhibition of P2X2 receptor
[38] = molecular target: Sodium channel protein type 10 subunit alpha (Rattus norvegicus, UniProt Q62968); test: Inhibition of Nav1.8 channel in rat dorsal root ganglion neurons assessed as blockade of TTX-R current by patch clamp method; format: tissue-based
[39] = molecular target: Sodium channel protein type 10 subunit alpha (Homo sapiens, UniProt Q9Y5Y9); test: Inhibition of human Nav1.8 channel expressed in HEK293 cells at -40 mV by patch clamp method; format: cell-based
[40] = molecular target: Sodium channel protein type 2 subunit alpha (Homo sapiens, UniProt Q99250); test: Inhibition of human Nav1.2 channel expressed in HEK293 cells at -60 mV by patch clamp method; format: cell-based
[41] = molecular target: Sodium channel protein type 3 subunit alpha (Homo sapiens, UniProt Q9NY46); test: Inhibition of human Nav1.3 channel expressed in HEK293 cells at -60 mV by patch clamp method; format: cell-based
[42] = molecular target: Sodium channel protein type 9 subunit alpha (Homo sapiens, UniProt Q15858); test: Inhibition of human Nav1.7 channel expressed in HEK293 cells at -60 mV by patch clamp method; format: cell-based
[43] = test system: Rattus norvegicus; test: Analgesic activity in ip dosed rat complete Freund's adjuvant-induced mechanical hyperalgesia model assessed as paw withdrawal latency after 4 days; format: functional; details: 96 h
[44] = test system: Rattus norvegicus; test: Analgesic activity in rat complete Freund's adjuvant-induced mechanical hyperalgesia model assessed as paw withdrawal latency at 100 mg/kg, ip after 4 days; format: functional; details: route intraperitoneal
[45] = molecular target: C-X-C chemokine receptor type 2 (Homo sapiens, UniProt P25025); test: Displacement of [125I]IL8 from CXCR2 receptor
[46] = molecular target: C-C chemokine receptor type 1 (Homo sapiens, UniProt P32246); test: Displacement of [125I]MIP1-alpha from CCR1 receptor
[47] = molecular target: Histamine H2 receptor (Homo sapiens, UniProt P25021); test: Displacement of [125I]APT from histamine H2 receptor
[48] = molecular target: Muscarinic acetylcholine receptor M1 (Homo sapiens, UniProt P11229); test: Displacement of [3H]pirezepine from muscarinic M1 receptor
[49] = molecular target: Muscarinic acetylcholine receptor M3 (Homo sapiens, UniProt P20309); test: Displacement of [3H]4DAMP from muscarinic M3 receptor
[50] = molecular target: Nociceptin receptor (Homo sapiens, UniProt P41146); test: Displacement of [3H]nociceptin from ORL1 receptor
[51] = molecular target: T1, P2X purinoceptor 2; test: Displacement of [3H]alpha,beta-methyl ATP from P2X receptor

T1 sequence (Q9UBL9 whole entry): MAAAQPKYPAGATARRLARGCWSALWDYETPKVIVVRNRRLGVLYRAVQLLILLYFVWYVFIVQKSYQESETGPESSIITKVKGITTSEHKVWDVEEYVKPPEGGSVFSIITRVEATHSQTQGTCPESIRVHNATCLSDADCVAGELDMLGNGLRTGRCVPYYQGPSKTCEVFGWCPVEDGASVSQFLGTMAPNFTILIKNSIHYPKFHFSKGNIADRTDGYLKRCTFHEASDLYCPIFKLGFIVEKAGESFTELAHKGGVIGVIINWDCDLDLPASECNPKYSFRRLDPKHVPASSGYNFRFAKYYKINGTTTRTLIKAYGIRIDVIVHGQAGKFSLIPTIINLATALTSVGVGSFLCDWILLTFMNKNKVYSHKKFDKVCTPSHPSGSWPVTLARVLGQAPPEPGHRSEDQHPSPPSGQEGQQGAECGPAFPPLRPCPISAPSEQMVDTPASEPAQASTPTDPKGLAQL
Nociceptin receptor, sequence (P41146 whole entry): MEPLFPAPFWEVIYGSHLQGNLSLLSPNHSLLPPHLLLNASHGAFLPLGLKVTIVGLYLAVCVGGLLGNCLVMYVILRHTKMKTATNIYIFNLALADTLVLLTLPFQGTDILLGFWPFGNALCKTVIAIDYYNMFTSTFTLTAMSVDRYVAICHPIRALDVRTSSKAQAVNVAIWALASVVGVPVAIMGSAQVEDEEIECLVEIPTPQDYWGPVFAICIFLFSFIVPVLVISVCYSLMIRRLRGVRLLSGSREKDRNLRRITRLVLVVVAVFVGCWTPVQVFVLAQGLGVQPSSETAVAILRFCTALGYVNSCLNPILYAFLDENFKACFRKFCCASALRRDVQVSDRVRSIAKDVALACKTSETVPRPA
Voltage-dependent N-type calcium channel subunit alpha-1B, sequence (Q00975 whole entry): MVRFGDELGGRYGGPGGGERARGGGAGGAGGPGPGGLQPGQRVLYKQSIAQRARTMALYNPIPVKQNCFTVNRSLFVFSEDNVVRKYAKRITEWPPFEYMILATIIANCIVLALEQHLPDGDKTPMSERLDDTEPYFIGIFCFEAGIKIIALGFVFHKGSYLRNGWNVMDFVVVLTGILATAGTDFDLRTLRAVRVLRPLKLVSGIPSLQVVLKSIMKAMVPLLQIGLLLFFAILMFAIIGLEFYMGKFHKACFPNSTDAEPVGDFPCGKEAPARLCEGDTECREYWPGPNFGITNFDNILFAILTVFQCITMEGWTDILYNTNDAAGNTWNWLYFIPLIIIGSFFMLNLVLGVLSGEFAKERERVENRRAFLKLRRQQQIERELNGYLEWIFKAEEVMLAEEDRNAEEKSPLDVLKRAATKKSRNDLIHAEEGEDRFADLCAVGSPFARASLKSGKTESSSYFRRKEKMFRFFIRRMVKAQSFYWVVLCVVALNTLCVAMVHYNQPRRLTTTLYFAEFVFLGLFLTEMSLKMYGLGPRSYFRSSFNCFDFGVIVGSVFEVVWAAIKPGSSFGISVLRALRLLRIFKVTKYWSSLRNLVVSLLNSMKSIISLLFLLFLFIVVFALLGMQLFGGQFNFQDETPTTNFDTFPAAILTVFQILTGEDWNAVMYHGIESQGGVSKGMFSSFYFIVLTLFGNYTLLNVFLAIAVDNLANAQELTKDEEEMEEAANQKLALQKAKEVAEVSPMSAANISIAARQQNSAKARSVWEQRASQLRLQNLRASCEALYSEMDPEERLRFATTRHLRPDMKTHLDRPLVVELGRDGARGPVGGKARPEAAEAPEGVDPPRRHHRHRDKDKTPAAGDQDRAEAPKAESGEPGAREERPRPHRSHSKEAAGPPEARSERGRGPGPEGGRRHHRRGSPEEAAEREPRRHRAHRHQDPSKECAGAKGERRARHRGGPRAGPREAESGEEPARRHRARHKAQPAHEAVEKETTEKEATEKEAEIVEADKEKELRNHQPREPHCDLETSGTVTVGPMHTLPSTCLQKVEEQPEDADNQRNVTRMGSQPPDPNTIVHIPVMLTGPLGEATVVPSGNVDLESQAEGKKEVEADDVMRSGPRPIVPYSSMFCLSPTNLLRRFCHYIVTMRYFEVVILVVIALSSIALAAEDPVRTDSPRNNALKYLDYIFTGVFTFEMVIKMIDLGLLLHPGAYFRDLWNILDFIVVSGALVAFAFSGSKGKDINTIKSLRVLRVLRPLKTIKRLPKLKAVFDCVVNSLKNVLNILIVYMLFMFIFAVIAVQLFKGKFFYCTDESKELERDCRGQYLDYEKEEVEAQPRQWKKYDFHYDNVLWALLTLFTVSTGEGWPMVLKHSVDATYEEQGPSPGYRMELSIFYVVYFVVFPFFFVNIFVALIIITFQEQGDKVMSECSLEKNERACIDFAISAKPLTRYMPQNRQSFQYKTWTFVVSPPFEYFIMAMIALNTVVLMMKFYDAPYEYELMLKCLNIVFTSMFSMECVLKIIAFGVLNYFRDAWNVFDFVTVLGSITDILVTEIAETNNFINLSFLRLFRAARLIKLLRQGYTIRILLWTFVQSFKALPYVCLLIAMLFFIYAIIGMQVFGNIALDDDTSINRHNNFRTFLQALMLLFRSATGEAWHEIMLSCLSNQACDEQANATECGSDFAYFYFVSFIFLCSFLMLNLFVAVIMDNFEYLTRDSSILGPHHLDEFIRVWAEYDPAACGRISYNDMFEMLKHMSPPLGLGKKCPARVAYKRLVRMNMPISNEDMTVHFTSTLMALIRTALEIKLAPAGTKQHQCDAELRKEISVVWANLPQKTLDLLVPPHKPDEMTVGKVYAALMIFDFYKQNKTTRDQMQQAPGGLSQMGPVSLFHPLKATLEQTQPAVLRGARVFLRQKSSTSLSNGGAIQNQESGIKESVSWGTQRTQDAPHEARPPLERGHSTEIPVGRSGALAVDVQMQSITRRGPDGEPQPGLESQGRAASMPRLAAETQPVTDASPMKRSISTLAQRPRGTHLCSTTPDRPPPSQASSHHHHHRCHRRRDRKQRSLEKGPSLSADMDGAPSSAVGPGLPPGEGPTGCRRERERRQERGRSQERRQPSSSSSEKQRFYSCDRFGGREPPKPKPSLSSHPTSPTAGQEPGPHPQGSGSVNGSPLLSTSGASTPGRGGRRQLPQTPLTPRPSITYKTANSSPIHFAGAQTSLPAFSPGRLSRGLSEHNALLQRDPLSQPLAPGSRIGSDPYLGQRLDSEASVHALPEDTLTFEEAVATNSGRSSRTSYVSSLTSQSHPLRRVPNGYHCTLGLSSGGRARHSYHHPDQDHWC
Muscarinic acetylcholine receptor M1, sequence (P11229 whole entry): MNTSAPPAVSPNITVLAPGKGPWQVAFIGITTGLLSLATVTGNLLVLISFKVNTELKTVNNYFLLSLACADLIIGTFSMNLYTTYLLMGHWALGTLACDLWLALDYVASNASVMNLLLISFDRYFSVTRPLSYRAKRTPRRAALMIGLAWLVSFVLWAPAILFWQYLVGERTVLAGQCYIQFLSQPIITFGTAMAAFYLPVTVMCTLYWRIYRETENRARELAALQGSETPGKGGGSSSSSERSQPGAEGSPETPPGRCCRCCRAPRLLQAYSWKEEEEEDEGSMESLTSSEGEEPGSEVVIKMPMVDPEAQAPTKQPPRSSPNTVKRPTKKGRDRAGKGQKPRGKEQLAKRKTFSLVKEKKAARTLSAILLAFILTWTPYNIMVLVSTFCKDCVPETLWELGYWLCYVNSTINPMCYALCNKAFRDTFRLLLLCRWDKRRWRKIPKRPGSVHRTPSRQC
C-C chemokine receptor type 1, sequence (P32246 whole entry): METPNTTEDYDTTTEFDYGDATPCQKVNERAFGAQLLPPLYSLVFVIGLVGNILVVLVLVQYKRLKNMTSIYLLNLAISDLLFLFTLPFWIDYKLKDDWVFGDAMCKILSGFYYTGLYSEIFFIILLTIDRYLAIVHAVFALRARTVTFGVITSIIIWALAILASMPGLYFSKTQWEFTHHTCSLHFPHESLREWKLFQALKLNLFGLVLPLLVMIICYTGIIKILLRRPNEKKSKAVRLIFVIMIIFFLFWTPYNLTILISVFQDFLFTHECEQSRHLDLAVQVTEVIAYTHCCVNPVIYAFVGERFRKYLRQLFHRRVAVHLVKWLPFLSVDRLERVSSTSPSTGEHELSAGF
D(1A) dopamine receptor, sequence (P21728 whole entry): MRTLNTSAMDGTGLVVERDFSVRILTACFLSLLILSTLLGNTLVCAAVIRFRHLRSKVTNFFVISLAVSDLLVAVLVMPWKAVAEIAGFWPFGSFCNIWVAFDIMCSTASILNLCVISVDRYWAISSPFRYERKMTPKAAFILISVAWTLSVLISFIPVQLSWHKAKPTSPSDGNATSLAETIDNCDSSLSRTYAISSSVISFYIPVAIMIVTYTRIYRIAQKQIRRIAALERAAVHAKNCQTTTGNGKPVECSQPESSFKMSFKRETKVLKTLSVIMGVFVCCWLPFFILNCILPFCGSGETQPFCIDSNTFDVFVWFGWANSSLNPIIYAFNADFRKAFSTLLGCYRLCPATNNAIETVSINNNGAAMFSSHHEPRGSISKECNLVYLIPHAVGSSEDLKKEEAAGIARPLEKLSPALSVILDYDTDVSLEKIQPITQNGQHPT
Beta-2 adrenergic receptor, sequence (P07550 whole entry, looked up): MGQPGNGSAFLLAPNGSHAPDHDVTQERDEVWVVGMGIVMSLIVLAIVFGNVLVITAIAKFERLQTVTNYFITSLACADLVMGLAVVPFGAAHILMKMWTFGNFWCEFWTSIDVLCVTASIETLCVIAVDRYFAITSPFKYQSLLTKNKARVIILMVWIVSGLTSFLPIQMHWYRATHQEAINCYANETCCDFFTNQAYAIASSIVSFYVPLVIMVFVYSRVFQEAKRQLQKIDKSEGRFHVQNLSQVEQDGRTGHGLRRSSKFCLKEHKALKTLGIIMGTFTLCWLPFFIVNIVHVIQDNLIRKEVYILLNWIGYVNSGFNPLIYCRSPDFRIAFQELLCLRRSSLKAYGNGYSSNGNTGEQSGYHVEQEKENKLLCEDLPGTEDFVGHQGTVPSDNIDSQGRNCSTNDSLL

IC50 [9]: > 10 µM | IC50 [10]: > 10 µM | IC50 [11]: > 10 µM | IC50 [12]: > 10 µM | bioavailability [13]: 12.8% | IC50 [14]: > 10 µM | IC50 [15]: > 10 µM | Cmax [17]: 350 ng/mL | Tmax [18]: 1.6 h | fraction unbound [19]: 0.013 | IC50 [30]: > 10 µM | IC50 [31]: 12 µM | IC50 [32]: > 10 µM | IC50 [33]: > 10 µM | IC50 [34]: > 10 µM | IC50 [35]: 7 µM | IC50 [36]: > 10 µM | IC50 [37]: > 10 µM | IC50 [38]: 0.14 µM | IC50 [39]: 0.008 µM | IC50 [40]: 7.38 µM | IC50 [41]: 2.45 µM | IC50 [42]: 6.74 µM | IC50 [45]: > 10 µM | IC50 [46]: > 10 µM | IC50 [47]: > 10 µM | IC50 [48]: > 10 µM | IC50 [49]: > 10 µM | IC50 [50]: > 10 µM | IC50 [51]: > 10 µM
Compound: COc1cc(NC(=O)c2ccc(-c3ccc(Cl)cc3)o2)cc(OC)c1
ED50 [1]: 85 mg/kg | Activity [2]: 61% | Activity [3]: 14% | ED50 [4]: > 100 mg/kg | ED50 [5]: > 100 mg/kg | Activity [6]: 0% | Activity [7]: 25% | Activity [8]: 12% | Activity [16]: Active | Activity [20]: >70% | Activity [21]: 53% | ED50 [22]: > 100 mg/kg | ED50 [23]: 65 mg/kg | Activity [24]: 9% | ED50 [25]: 100 mg/kg | ED50 [26]: 100 mg/kg | ED50 [27]: 100 mg/kg | Activity [28]: 64% | Activity [29]: 71% | ED50 [43]: > 100 mg/kg | Activity [44]: 42%
